Assay: PK and tissue distribution of GC-Mel/Mel at various intervals after CAB 1.11i in TLS174T xenograft mice
Format: in vivo, Ncr athymic nude mice
Protocol: We assessed the tumor retention characteristics of CAB1.11i by monitoring the formation of Mel from the administration of GC-Mel. Dosing solutions were prepared on the day of dosing, within 60 minutes of administration.
The concentration of the formulation of GC-Mel in bicarbonate/sucrose was based on average […] weight, the desired volume of administration and a dose level of 150 mg/kg. GC-Mel was weighed out and, based on this weight, the appropriate amount of sodium bicarbonate to neutralize all 3 equivalents of the three carboxylic acid sites of GC-Mel was determined. Vehicle was prepared in the required volume by adding the precalculated sodium bicarbonate solution in 5% aqueous sucrose. Vehicle was prechilled at 4° C. Cold vehicle was added to the GC-Mel powder and the mixture was vortexed and sonicated to achieve speedy dissolution.
The animals were be implanted subcutaneously on the flank with 2×10^6 TLS174T cells, a human colorectal tumor line, in 100 μl of phosphate buffered saline. Beginning approximately one week after tumor cell implant, tumors were measured every 3 to 4 days. When the tumors reached approximately 100-250 mm^3, 156 animals were selected based on tumor size and randomized into 7 groups, resulting in a non-significant difference in the mean tumor size between groups at the start of the experiment.
Mice were warmed with a heating lamp and heating pad, placed in a restrainer and the test compounds were administered by bolus intravenous injection via the tail vein. For the blood sampling, all mice were anesthetized by isoflurane inhalation at the time of sample collection. Blood was collected by cardiac puncture into tubes containing EDTA and placed on ice. Tubes were centrifuged at 4000 RPM for two minutes. The plasma fraction was removed into a pre-labeled microfuge tube and placed on dry ice or liquid nitrogen. Sample concentrations were determined.
Tissue samples were rinsed 1× in phosphate buffered saline to remove blood. The samples were snap frozen using liquid nitrogen or dry ice. Tissue samples were stored at −70° C. prior to analysis. […]

With N[C@@H](Cc1ccc(N(CCCl)CCCl)cc1)C(=O)O [Mel, Melphalan] the “plasma Mel level” value (GC-Mel 150 mg/kg given 96 hrs after CAB 1.11i 1 mg/kg) was “decreased to near background (concomitant) levels”, the “plasma and kidney exposure to Mel (AUC)” value (with increased interval between CAB 1.11i and GC-Mel doses, FIG. 17) was “decreased” and the “systemic melphalan exposure (AUC)” value (with increasing interval, FIG. 18) was “decreased”.
